Experimental data published in the supplement of paper PMC10307832.

Experiments:
Experiment in all cases: relative viability (nuclei count vs DMSO), 5 days (fraction); higher = more cells survive
ABC-1 = test system: ABC-1
How it was run: (§1)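 Lung cancer cell lines in 1536-well plates got either a single drug or a fixed anchor-drug dose together with five library-drug doses (not always all listed) in √10 steps, by pin tool, on the day after seeding. Nuclei were counted after 5 days, and relative viability is the treated-to-vehicle ratio of nuclei counts. Values are medians of duplicate plates.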

SK-MES-1 = test system: SK-MES-1
How it was run: as §1

NCI-H1355 = test system: NCI-H1355
How it was run: as §1

NCI-H322M = test system: NCI-H322M
How it was run: as §1

NCI-H1915 = test system: NCI-H1915
How it was run: as §1

NCI-H2085 = test system: NCI-H2085
How it was run: as §1

NCI-H2087 = test system: NCI-H2087
How it was run: as §1

CAL-12T = test system: CAL-12T
How it was run: as §1

NCI-H1395 = test system: NCI-H1395
How it was run: as §1

A-427 = test system: A-427
How it was run: as §1

PC-14 = test system: PC-14
How it was run: as §1

LCLC-97TM1 = test system: LCLC-97TM1
How it was run: as §1

`O=c1[nH]c2ccccc2n1C1CCN(CCCC(c2ccc(F)cc2)c2ccc(F)cc2)CC1` [Pimozide] + CS(=O)(=O)N1CCN(Cc2cc3nc(-c4cccc5[nH]ncc45)nc(N4CCOCC4)c3s2)CC1 [Pictilisib] (partner 1 µM) was tested, and the relative viability (ABC-1; first compound 0.08 µM) was 0.596, the relative viability (ABC-1; first compound 0.253 µM) was 0.84 and the relative viability (ABC-1; first compound 0.8 µM) was 0.743. The relative viability (ABC-1; first compound 2.53 µM) was 0.589, the relative viability (ABC-1; first compound 8 µM) was 0.474 and the relative viability (SK-MES-1; first compound 0.08 µM) was 0.305. For the same compound, the relative viability (SK-MES-1; first compound 0.253 µM) was 0.308, the relative viability (SK-MES-1; first compound 0.8 µM) was 0.36 and the relative viability (SK-MES-1; first compound 2.53 µM) was 0.38. The relative viability (SK-MES-1; first compound 8 µM) was 0.341, the relative viability (NCI-H1355; first compound 0.08 µM) was 0.371 and the relative viability (NCI-H1355; first compound 0.253 µM) was 0.417. The relative viability (NCI-H1355; first compound 0.8 µM) was 0.436, the relative viability (NCI-H1355; first compound 2.53 µM) was 0.466 and the relative viability (NCI-H1355; first compound 8 µM) was 0.357. It also gave a relative viability (NCI-H322M; first compound 0.253 µM) of 0.509, a relative viability (NCI-H322M; first compound 0.8 µM) of 0.478 and a relative viability (NCI-H322M; first compound 2.53 µM) of 0.482. For the same compound, the relative viability (NCI-H322M; first compound 8 µM) was 0.382, the relative viability (NCI-H1915; first compound 0.08 µM) was 0.972 and the relative viability (NCI-H1915; first compound 0.253 µM) was 0.892. It also gave a relative viability (NCI-H1915; first compound 0.8 µM) of 0.524, a relative viability (NCI-H1915; first compound 2.53 µM) of 0.889 and a relative viability (NCI-H1915; first compound 8 µM) of 0.796. The relative viability (NCI-H2085; first compound 0.08 µM) was 0.446, the relative viability (NCI-H2085; first compound 0.253 µM) was 0.532 and the relative viability (NCI-H2085; first compound 0.8 µM) was 0.525. For the same compound, the relative viability (NCI-H2085; first compound 2.53 µM) was 0.486, the relative viability (NCI-H2085; first compound 8 µM) was 0.415 and the relative viability (NCI-H2087; first compound 0.08 µM) was 0.9. The relative viability (NCI-H2087; first compound 0.253 µM) was 0.994, the relative viability (NCI-H2087; first compound 0.8 µM) was 0.824 and the relative viability (NCI-H2087; first compound 2.53 µM) was 0.784. For the same compound, the relative viability (NCI-H2087; first compound 8 µM) was 0.62, the relative viability (CAL-12T; first compound 0.08 µM) was 0.399 and the relative viability (CAL-12T; first compound 0.253 µM) was 0.244. For the same compound, the relative viability (CAL-12T; first compound 0.8 µM) was 0.418, the relative viability (CAL-12T; first compound 2.53 µM) was 0.462 and the relative viability (CAL-12T; first compound 8 µM) was 0.332. It also gave a relative viability (NCI-H1395; first compound 0.08 µM) of 0.647, a relative viability (NCI-H1395; first compound 0.253 µM) of 0.598 and a relative viability (NCI-H1395; first compound 0.8 µM) of 0.634. For the same compound, the relative viability (NCI-H1395; first compound 2.53 µM) was 0.679, the relative viability (NCI-H1395; first compound 8 µM) was 0.681 and the relative viability (A-427; first compound 0.08 µM) was 0.723. The relative viability (A-427; first compound 0.253 µM) was 0.729, the relative viability (A-427; first compound 0.8 µM) was 0.538 and the relative viability (A-427; first compound 2.53 µM) was 0.68. For the same compound, the relative viability (A-427; first compound 8 µM) was 0.668, the relative viability (PC-14; first compound 0.253 µM) was 0.631 and the relative viability (PC-14; first compound 0.8 µM) was 0.738. For the same compound, the relative viability (PC-14; first compound 2.53 µM) was 0.716, the relative viability (PC-14; first compound 8 µM) was 0.634 and the relative viability (LCLC-97TM1; first compound 0.08 µM) was 0.194. It also gave a relative viability (LCLC-97TM1; first compound 0.253 µM) of 0.183.
